Patent US8883797B2, “Metalloenzyme inhibitor compounds” (Viamet Pharmaceuticals, Inc., priority 2011, dated 2014)
In brackets after ≈: the same amount, converted by molar mass.

Test system: Septoria tritici (ATCC 26517)
Assay: Minimum Inhibitory Concentration (MIC) (Septoria tritici), CLSI-based microdilution
Assay type: cell-based
Settings: Zymoseptoria tritici, ATCC26517, 168 h; S. tritici ATCC 26517; 50% growth reduction; 7 days at 22 °C; read-out: Septoria Rating (MIC)
Procedure: C. Minimum Inhibitory Concentration (MIC) (Septoria tritici) Compounds of the present disclosure were assessed for their ability to inhibit the growth of a common strain of the fungal plant pathogen Septoria tritici (ATCC 26517) using a procedure based on a Clinical and Laboratory Standards Institute (CLSI) microdilution assay protocol for filamentous fungi. Stock solutions of the test compounds and standards were prepared in DMSO at 6400 μg/mL. Each stock solution was used to prepare a 2-fold dilution series ranging from 16 to 0.016 μg/mL (total of 11 compound concentrations) in RPMI-1640 (Roswell Park Memorial Institute) medium containing 3-(N-morpholino)propanesulfonic acid (MOPS) buffer and 2% DMSO. A 100 μL aliquot of the dilutions was added to columns 1 (16 μg/mL compound) through 11 (0.016 μg/mL compound) of a 96-well microtiter plate. This format was replicated in a second row of the microtiter plate. Thus, each microtiter plate could include 11 concentrations of four test or control compounds replicated twice. A 100 μL aliquot of RPMI-1640/MOPS/2% DMSO medium was added to column 12 (no compound control) of the microtiter plate. A fresh culture of S. tritici was used to prepare a solution of approximately 5×10^4 colony-forming units per milliliter (cfu/mL) in RPMI/MOPS medium without DMSO. A 100 μL aliquot of this solution was added to all 96 wells in the microtiter plate. […] The assay plates were incubated at 22° C. for seven days in the dark without shaking. […] In each case of Table 3 the rating scale is as follows: […]

`OC(Cn1cnnn1)(c1ccc(F)cc1F)C(F)(F)c1ccc(-c2ccc(OCC(F)(F)F)cc2)nc1` (centres unmarked) [Compound 36, 2-(2,4-Difluorophenyl)-1,1-difluoro-3-(1H-tetrazol-1-yl)-1-(6-(4-(2,2,2-trifluoroethoxy)phenyl)pyridin-3-yl)propan-2-ol] gave an MIC of 1.5 to 4 mg/L (≈ 2.84 to 7.58 µM).
`OC(Cn1cnnn1)(c1ccc(F)cc1F)C(F)(F)c1cnc(C#Cc2ccc(F)cc2)cn1` (centres unmarked) [Compound 50, 2-(2,4-Difluorophenyl)-1,1-difluoro-1-(5-((4-fluorophenyl)ethynyl)pyrazin-2-yl)-3-(1H-tetrazol-1-yl)propan-2-ol] was tested, and the MIC was at most 0.5 mg/L.
In the case of `OC(Cn1cnnn1)(c1ccc(F)cc1F)C(F)(F)c1ccc2cc(F)ccc2n1` (centres unmarked) [Compound 17, 2-(2,4-Difluorophenyl)-1,1-difluoro-1-(6-fluoroquinolin-2-yl)-3-(1H-tetrazol-1-yl)propan-2-ol], the MIC is reported as at most 0.5 mg/L.
In the case of `OC(Cn1cnnn1)(c1ccc(F)cc1F)C(F)(F)c1cccs1` (centres unmarked) [Compound 14, 2-(2,4-Difluorophenyl)-1,1-difluoro-3-(1H-tetrazol-1-yl)-1-(thiophen-2-yl)propan-2-ol], the MIC is reported as 0.5 to 1.5 mg/L (≈ 1.4 to 4.19 µM).
`N#Cc1ccc2nc(C(F)(F)C(O)(Cn3cnnn3)c3ccc(F)cc3F)ccc2c1` (centres unmarked) [Compound 24, 2-(2-(2,4-Difluorophenyl)-1,1-difluoro-2-hydroxy-3-(1H-tetrazol-1-yl)propyl)quinoline-6-carbonitrile] gave an MIC of at most 0.5 mg/L.
For `OC(Cn1cnnn1)(c1ccc(F)cc1F)C(F)(F)c1cnc(-c2ccc(OCC(F)(F)F)cc2)cn1` (centres unmarked) [Compound 41, 2-(2,4-Difluorophenyl)-1,1-difluoro-3-(1H-tetrazol-1-yl)-1-(5-(4-(2,2,2-trifluoroethoxy)phenyl)pyrazin-2-yl)propan-2-ol], the MIC was at most 0.5 mg/L.
`OC(Cn1cnnn1)(c1ccc(Cl)cc1F)C(F)(F)c1ccc2cc(Cl)ccc2n1` (stereo not drawn) [8(−), 2-(4-Chloro-2-fluorophenyl)-1-(6-chloroquinolin-2-yl)-1,1-difluoro-3-(1H-tetrazol-1-yl)propan-2-ol] showed an MIC of at most 0.5 mg/L.
In the case of `OC(Cn1ncnn1)(c1ccc(F)cc1F)C(F)(F)c1cnc(C#Cc2ccc(F)cc2)cn1` (centres unmarked) [Compound 51, 2-(2,4-difluorophenyl)-1,1-difluoro-1-(5-((4-fluorophenyl)ethynyl)pyrazin-2-yl)-3-(2H-tetrazol-2-yl)propan-2-ol], the MIC is reported as 1.5 to 4 mg/L (≈ 3.18 to 8.47 µM).
Molecule `OC(Cn1cnnn1)(c1ccc(C(F)(F)F)cc1F)C(F)(F)c1ccc2cc(Cl)ccc2n1` (centres unmarked) [Compound 20, 1-(6-Chloroquinolin-2-yl)-1,1-difluoro-2-(2-fluoro-4-(trifluoromethyl)phenyl)-3-(1H-tetrazol-1-yl)propan-2-ol] has an MIC of 0.5 to 1.5 mg/L (≈ 1.03 to 3.08 µM).
Work on `OC(Cn1cnnn1)(c1ccc(F)cc1)C(F)(F)c1cnc(-c2ccc(OC(F)(F)F)cc2)cn1` (centres unmarked) [Compound 45, 1,1-Difluoro-2-(4-fluorophenyl)-3-(1H-tetrazol-1-yl)-1-(5-(4-(trifluoromethoxy)phenyl)pyrazin-2-yl)propan-2-ol] yielded an MIC of 1.5 to 4 mg/L (≈ 3.02 to 8.06 µM).
`OC(Cn1cnnn1)(c1ccc(C(F)(F)F)cc1Cl)C(F)(F)c1ccc2cc(Cl)ccc2n1` (centres unmarked) [Compound 22, 2-(2-Chloro-4-(trifluoromethyl)phenyl)-1-(6-chloroquinolin-2-yl)-1,1-difluoro-3-(1H-tetrazol-1-yl)propan-2-ol] showed an MIC of 1.5 to 4 mg/L (≈ 2.97 to 7.93 µM).
`COc1ccc(C(O)(Cn2cnnn2)C(F)(F)c2ccc3cc(Cl)ccc3n2)cc1` (centres unmarked) [Compound 15, 1-(6-Chloroquinolin-2-yl)-1,1-difluoro-2-(4-methoxyphenyl)-3-(1H-tetrazol-1-yl)propan-2-ol] showed an MIC of 1.5 to 4 mg/L (≈ 3.47 to 9.26 µM).
`OC(Cn1cnnn1)(c1ccc(F)cc1F)C(F)(F)c1ccc2c(Cl)cccc2n1` (centres unmarked) [Compound 31, 1-(5-Chloroquinolin-2-yl)-2-(2,4-difluorophenyl)-1,1-difluoro-3-(1H-tetrazol-1-yl)propan-2-ol] gave an MIC of 1.5 to 4 mg/L (≈ 3.43 to 9.14 µM).
For `OC(Cn1cnnn1)(c1ccc(F)cc1F)C(F)(F)c1ccc(-c2ccc(F)cc2)cc1` (centres unmarked) [Compound 61, 2-(2,4-Difluorophenyl)-1,1-difluoro-1-(4′-fluoro-[1,1′-biphenyl]-4-yl)-3-(1H-tetrazol-1-yl)propan-2-ol], the MIC was 0.5 to 1.5 mg/L (≈ 1.12 to 3.36 µM).
`OC(Cn1cnnn1)(c1ccc(F)cc1F)C(F)(F)c1cnc2cc(OC(F)(F)F)ccc2n1` (centres unmarked) [Compound 54, 2-(2,4-Difluorophenyl)-1,1-difluoro-3-(1H-tetrazol-1-yl)-1-(6-(trifluoromethoxy)quinoxalin-2-yl)propan-2-ol] gave an MIC of 1.5 to 4 mg/L (≈ 3.07 to 8.19 µM).
`OC(Cn1cnnn1)(c1ccc(F)cc1F)C(F)(F)c1cnc(-c2ccc(F)cc2)cn1` (centres unmarked) [Compound 46, 2-(2,4-Difluorophenyl)-1,1-difluoro-1-(5-(4-fluorophenyl)pyrazin-2-yl)-3-(1H-tetrazol-1-yl)propan-2-ol] gave an MIC of 0.5 to 1.5 mg/L (≈ 1.12 to 3.35 µM).
In the case of `OC(Cn1cnnn1)(c1ccc(F)cc1F)C(F)(F)c1ccc2c(OCC(F)(F)F)cccc2n1` (centres unmarked) [Compound 30, 2-(2,4-Difluorophenyl)-1,1-difluoro-3-(1H-tetrazol-1-yl)-1-(5-(2,2,2-trifluoroethoxy)quinolin-2-yl)propan-2-ol], the MIC is reported as 1.5 to 4 mg/L (≈ 2.99 to 7.98 µM).
Work on `OC(Cn1cnnn1)(c1ccc(F)cc1F)C(F)(F)c1cnc(-c2ccc(F)c(F)c2)cn1` (centres unmarked) [Compound 44, 2-(2,4-Difluorophenyl)-1-(5-(3,4-difluorophenyl)pyrazin-2-yl)-1,1-difluoro-3-(1H-tetrazol-1-yl)propan-2-ol] yielded an MIC of 0.5 to 1.5 mg/L (≈ 1.07 to 3.22 µM).
With `OC(Cn1cnnn1)(c1ccc(F)cc1F)C(F)(F)c1nccs1` (centres unmarked) [Compound 12, 2-(2,4-Difluorophenyl)-1,1-difluoro-3-(1H-tetrazol-1-yl)-1-(thiazol-2-yl)propan-2-ol] the MIC was over 4 mg/L.
`OC(Cn1ncnn1)(c1ccc(F)cc1F)C(F)(F)c1cnc(-c2ccc(F)cc2)cn1` (centres unmarked) [Compound 47, 2-(2,4-Difluorophenyl)-1,1-difluoro-1-(5-(4-fluorophenyl)pyrazin-2-yl)-3-(2H-tetrazol-2-yl)propan-2-ol] gave an MIC of over 4 mg/L.
With `OC(Cn1cnnn1)(c1ccc(F)cc1F)C(F)(F)c1ccc(-c2ccc(F)cc2)nn1` (centres unmarked) [Compound 58, 2-(2,4-Difluorophenyl)-1,1-difluoro-1-(6-(4-fluorophenyl)pyridazin-3-yl)-3-(1H-tetrazol-1-yl)propan-2-ol] the MIC was 1.5 to 4 mg/L (≈ 3.35 to 8.92 µM).
`OC(Cn1cnnn1)(c1ccc(F)cc1F)C(F)(F)c1ccc2c(Cl)c(Cl)ccc2n1` (centres unmarked) [Compound 29, 1-(5,6-Dichloroquinolin-2-yl)-2-(2,4-difluorophenyl)-1,1-difluoro-3-(1H-tetrazol-1-yl)propan-2-ol] gave an MIC of at most 0.5 mg/L.
`OC(Cn1cnnn1)(c1ccc(F)cc1F)C(F)(F)c1ccc2cc(OCC(F)(F)F)ccc2n1` (centres unmarked) [Compound 19, 2-(2,4-Difluorophenyl)-1,1-difluoro-3-(1H-tetrazol-1-yl)-1-(6-(2,2,2-trifluoroethoxy)quinolin-2-yl)propan-2-ol] showed an MIC of 0.5 to 1.5 mg/L (≈ 0.997 to 2.99 µM).
Work on `OC(Cn1ncnn1)(c1ccc(F)cc1F)C(F)(F)c1ccc2cc(Cl)ccc2n1` (centres unmarked) [Compound 16, 1-(6-Chloroquinolin-2-yl)-2-(2,4-difluorophenyl)-1,1-difluoro-3-(2H-tetrazol-2-yl)propan-2-ol] yielded an MIC of 0.5 to 1.5 mg/L (≈ 1.14 to 3.43 µM).
With `OC(Cn1ncnn1)(c1ccc(F)cc1F)C(F)(F)c1cnc(CCc2ccc(F)cc2)cn1` (centres unmarked) [Compound 53, 2-(2,4-Difluorophenyl)-1,1-difluoro-1-(5-(4-fluorophenethyl)pyrazin-2-yl)-3-(2H-tetrazol-2-yl)propan-2-ol] the MIC was 1.5 to 4 mg/L (≈ 3.15 to 8.4 µM).
For `C=Cc1ccc2nc(C(F)(F)C(O)(Cn3cnnn3)c3ccc(F)cc3F)cnc2c1` (centres unmarked) [Compound 59, 2-(2,4-Difluorophenyl)-1,1-difluoro-3-(1H-tetrazol-1-yl)-1-(6-vinylquinoxalin-2-yl)propan-2-ol], the MIC was 0.5 to 1.5 mg/L (≈ 1.16 to 3.49 µM).
In the case of `OC(Cn1cnnn1)(c1ccc(F)c(F)c1)C(F)(F)c1ccc2cc(Cl)ccc2n1` (centres unmarked) [Compound 23, 1-(6-Chloroquinolin-2-yl)-2-(3,4-difluorophenyl)-1,1-difluoro-3-(1H-tetrazol-1-yl)propan-2-ol], the MIC is reported as at most 0.5 mg/L.
With `OC(Cn1cnnn1)(c1ccc(F)cc1F)C(F)(F)c1ccc(-c2ccc(OCC(F)(F)F)cc2)cc1` (centres unmarked) [Compound 60, 2-(2,4-Difluorophenyl)-1,1-difluoro-3-(1H-tetrazol-1-yl)-1-(4′-(2,2,2-trifluoroethoxy)biphenyl-4-yl)propan-2-ol] the MIC was 1.5 to 4 mg/L (≈ 2.85 to 7.6 µM).
Work on `OC(Cn1cnnn1)(c1ccc(F)cc1F)C(F)(F)c1nc(Br)cs1` (centres unmarked) [Compound 2, 1-(4-Bromothiazol-2-yl)-2-(2,4-difluorophenyl)-1,1-difluoro-3-(1H-tetrazol-1-yl)propan-2-ol] yielded an MIC of 1.5 to 4 mg/L (≈ 3.42 to 9.13 µM).
`OC(Cn1cnnn1)(c1ccc(F)cc1F)C(F)(F)c1cnc2cc(F)ccc2n1` (centres unmarked) [Compound 55, 2-(2,4-Difluorophenyl)-1,1-difluoro-1-(6-fluoroquinoxalin-2-yl)-3-(1H-tetrazol-1-yl)propan-2-ol] gave an MIC of 1.5 to 4 mg/L (≈ 3.55 to 9.47 µM).
`OC(Cn1cnnn1)(c1ccc(F)cc1F)C(F)(F)c1cnc(-c2ccc(Cl)cc2)cn1` (centres unmarked) [Compound 40, 1-(5-(4-Chlorophenyl)pyrazin-2-yl)-2-(2,4-difluorophenyl)-1,1-difluoro-3-(1H-tetrazol-1-yl)propan-2-ol] gave an MIC of 0.5 to 1.5 mg/L (≈ 1.08 to 3.23 µM).
`OC(Cn1cnnn1)(c1ccc(F)cc1F)C(F)(F)c1nc2ccccc2s1` (centres unmarked) [Compound 6, 1-(Benzo[d]thiazol-2-yl)-2-(2,4-difluorophenyl)-1,1-difluoro-3-(1H-tetrazol-1-yl)propan-2-ol] gave an MIC of at most 0.5 mg/L.
